The record followed here is patent US10028992B2, “Methods of treating muscular dystrophy” (BOARD OF REGENTS OF THE NEVADA SYSTEM OF HIGHER EDUCATION …, priority 2012, dated 2018).

In this assay the test system is α7 integrin promoter. As to the kind of experiment: muscle cell-based assay: α7βgal+/− myoblasts/myotubes, LacZ reporter, β-galactosidase cleavage of FDG. Details: species or system mouse; Results in α7+/− β-galactosidase assay: scale not given here. As to conditions: Myoblasts. An outline of the steps: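 Primary α7βgal+/− mouse myoblasts (LacZ knocked into α7 integrin exon 1, promoter retained), differentiated; promoter activity read as β-galactosidase conversion of non-fluorescent FDG to fluorescein. Hits followed by dose-response, western analysis and myostatin counterscreen.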

As to `O=CN1CCN(C(=O)CC(c2ccccc2)c2cc(Br)ccc2O)CC1` (stereo not drawn) [drawing 695], the “Results in α7+/− β-galactosidase assay” value by setting is: (0.5 uM) 0.1751; (1 uM) 0.03283; (5 uM) 0.07723; (10 uM) −0.1323; (20 uM) 0.00725; (40 uM) −0.04551.

For `Cc1ccc2c(c1)/C(=C/c1ccco1)C(=O)N2` [drawing 696], the “Results in α7+/− β-galactosidase assay” value was 0.2035 (0.5 uM); 0.02005 (1 uM); 0.2293 (5 uM); 0.07554 (10 uM); 0.1241 (20 uM); 0.1026 (40 uM).

Regarding `O=C1CCC(C(=O)N2CCSCC2)CN1Cc1ccc(Cl)cc1` (stereo not drawn) [drawing 697], the “Results in α7+/− β-galactosidase assay” value runs as follows: (0.5 uM) 0.1419; (1 uM) −0.02657; (5 uM) 0.2626; (10 uM) 0.4599; (20 uM) 0.2652; (40 uM) 0.222.

`c1ccc(-c2cn3c4c(sc3n2)CCCC4)cc1` [drawing 698]: the “Results in α7+/− β-galactosidase assay” value was 0.1572 (0.5 uM); 0.06589 (1 uM); 0.03743 (5 uM); 0.2239 (10 uM); −0.06232 (20 uM); −0.1797 (40 uM).

Take `COc1ccccc1CC(=O)Nc1cc(S(=O)(=O)N2CCOCC2)ccc1N1CCOCC1` [drawing 699]: the “Results in α7+/− β-galactosidase assay” value is listed as 0.122 (0.5 uM); −0.02918 (1 uM); 0.0982 (5 uM); 0.2162 (10 uM); −0.2175 (20 uM); −0.3265 (40 uM).

`COc1ccccc1/C=C1\C(=O)Nc2ccccc21` [drawing 700]: the “Results in α7+/− β-galactosidase assay” value is listed as 0.2078 (0.5 uM); 0.1004 (1 uM); 0.141 (5 uM); 0.312 (10 uM); −0.00605 (20 uM); −0.06928 (40 uM).

For `CN1C(=O)N(CC(=O)N2CCN(S(=O)(=O)c3ccc(Cl)s3)CC2)C(=O)C12CCCCC2` [drawing 701], the “Results in α7+/− β-galactosidase assay” value is 0.1065 (0.5 uM); 0.03367 (1 uM); 0.1338 (5 uM); 0.2611 (10 uM); −0.306 (20 uM); −0.5075 (40 uM).

In the case of `Cn1cc(CN2CCC(C(=O)Nc3cccc(-c4cscn4)c3)CC2)cn1` [drawing 702], the “Results in α7+/− β-galactosidase assay” value by setting is: (0.5 uM) 0.1618; (1 uM) 0.05749; (5 uM) 0.02884; (10 uM) 0.2457; (20 uM) −0.3975; (40 uM) −0.5369.

Turning to `O=C1Cc2ccccc2/C1=C\c1ccc([N+](=O)[O-])cc1` [drawing 703], the “Results in α7+/− β-galactosidase assay” value reads like this: (0.5 uM) 0.04429; (1 uM) −0.00937; (5 uM) 0.02036; (10 uM) 0.1452; (20 uM) −0.2086; (40 uM) −0.4972.
